Assay results reported in US9050345B2, “Pyrrolotriazines as potassium ion channel inhibitors” (BRISTOL-MYERS SQUIBB COMPANY, priority 2013, dated 2015).

target: T1, human KV 1.5 (IKur) (Homo sapiens, UniProt P22460); assay: block of IKur current in patch clamped L-929 cells expressing human Kv1.5; format: cell-based; conditions: 0.3 μM; patch clamped mammalian L-929 cells stably expressing human Kv1.5
T1 construct: expressed in transfected cells
Excerpt: Assays to determine the degree of activity of a compound as an IKur inhibitor are well known in the art and are described in references such as J. Gen. Physiol., 101(4):513-543 (April 1993), and Br. J. Pharmacol., 115(2):267-274 (May 1995).
Synders, D. J. et al., “A rapidly activating and slowly inactivating potassium channel cloned from human heart: functional analysis after stable mammalian cell culture expression”, J. Gen. Physiol., 101:513-543 (1993). • 2. Zhou, Z. et al., “Block of HERG potassium channels by the antihistamine astemizole and its metabolites desmethylastemizole and norastemizole”, J. Cardiovasc. Electrophysiol., 10(6):836-843 (1999).

T1 sequence (P22460 whole entry): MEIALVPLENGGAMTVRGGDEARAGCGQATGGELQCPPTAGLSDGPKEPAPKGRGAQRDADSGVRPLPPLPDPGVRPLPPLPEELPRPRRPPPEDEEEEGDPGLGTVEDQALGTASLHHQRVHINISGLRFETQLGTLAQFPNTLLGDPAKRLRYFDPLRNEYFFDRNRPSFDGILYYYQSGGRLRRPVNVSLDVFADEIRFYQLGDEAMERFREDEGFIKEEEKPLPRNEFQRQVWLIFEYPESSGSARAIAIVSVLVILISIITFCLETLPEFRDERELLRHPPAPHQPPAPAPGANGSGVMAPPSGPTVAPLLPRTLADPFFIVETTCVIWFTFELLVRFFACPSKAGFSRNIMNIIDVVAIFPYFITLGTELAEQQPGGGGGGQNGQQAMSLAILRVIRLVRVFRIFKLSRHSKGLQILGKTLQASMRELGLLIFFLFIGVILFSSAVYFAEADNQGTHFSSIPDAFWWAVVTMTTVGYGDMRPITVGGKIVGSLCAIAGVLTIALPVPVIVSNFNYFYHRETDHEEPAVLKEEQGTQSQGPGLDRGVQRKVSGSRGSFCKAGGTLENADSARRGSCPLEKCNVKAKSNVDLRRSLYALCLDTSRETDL

| KV1_5% Inh L929 @0.3 μM [%] | Compound |
| --- | --- |
| 95.70 | CC(Nc1nc(-c2cncc(S(N)(=O)=O)c2)nn2ccc(-c3ccccc3)c12)c1ccc(F)cc1 (stereo not drawn) [Example 77, 5-(4-(1-(4-fluorophenyl)ethylamino)-5-phenylpyrrolo[1,2-f] [1,2,4]triazin-2-yl)pyridine-3-sulfonamide] |
| 96.86 | O=C(NCC(O)CO)c1cncc(-c2nc(NCc3ccccc3)c3c(-c4ccccc4)ccn3n2)c1 (stereo not drawn) [Example 97, 5-(4-(benzylamino)-5-phenylpyrrolo [1,2-f][1,2,4]triazin-2-yl)-N-(2,3-dihydroxypropyl) nicotinamide] |

same assay, conditions: L929, 0.3 μM; patch clamped mammalian L-929 cells stably expressing human Kv1.5; read-out: KV1_5% Inh L929 @0.3 μM

| Compound | inhibition at 0.3 µM [%] |
| --- | --- |
| Nc1cncc(-c2nc(NCc3ccccn3)c3c(-c4cncc(N)c4)ccn3n2)c1 [Example 68, 5,5′-(4-(pyridin-2-ylmethylamino)pyrrolo [1,2-f][1,2,4]triazine-2-,5-diyl)dipyridin-3-amine] | 28.1 |
| N#Cc1cccc(-c2ccn3nc(-c4cncc(N)c4)nc(NCc4ccccn4)c23)c1 [Example 69, 3-(2-(5-aminopyridin-3-yl)-4-(pyridin-2-ylmethylamino)pyrrolo [1,2-f][1,2,4]triazin-5-yl)benzonitrile] | 80.3 |
| Cc1ncc(-c2nc(NCc3ccccn3)c3c(-c4ccccc4)ccn3n2)cc1N [Example 71, 2-(5-amino-6-methylpyridin-3-yl)-5-phenyl-N-(pyridin-2-ylmethyl)pyrrolo[1,2-f] [1,2,4]triazin-4-amine] | 89.1 |
| CC(C)OC(=O)Nc1cncc(-c2nc(NCc3ccccn3)c3c(-c4ccccc4)ccn3n2)c1 [Example 72, isopropyl 5-(5-phenyl-4-(pyridin-2-ylmethylamino)pyrrolo[1,2-f][1,2,4]triazin-2-yl)pyridin-3-ylcarbamate] | 95.5 |
| Nc1cncc(-c2nc(NCC3CCCCC3)c3c(-c4ccccc4)ccn3n2)c1 [Example 73, 2-(5-aminopyridin-3-yl)-N-(cyclohexylmethyl)-5-phenylpyrrolo[1,2-f] [1,2,4] triazin-4-amine] | 88.3 |
| CC(Nc1nc(-c2cncc(S(N)(=O)=O)c2)nn2ccc(-c3ccccc3)c12)c1ccc(F)cc1 (stereo not drawn) [Example 76, 5-(4-(1-(4-fluorophenyl)ethylamino)-5-phenylpyrrolo[1,2-f] [1,2,4]triazin-2-yl) pyridine-3-sulfonamide] | 93.8 |
| O=C(O)CC(=O)Nc1cncc(-c2nc(NCc3ccccc3)c3c(-c4ccccc4)ccn3n2)c1 [Example 78, 3-(5-(4-(benzylamino)-5-phenylpyrrolo [1,2-f][1,2,4]triazin-2-yl)pyridin-3-ylamino)-3-oxopropanoic acid] | 22.9 |
| NS(=O)(=O)c1cncc(-c2nc(NCc3c(F)cccc3F)c3c(-c4ccccc4)ccn3n2)c1 [Example 79, 5-(4-(2,6-difluorobenzylamino)-5-phenylpyrrolo [1,2-f][1,2,4]triazin-2-yl)pyridine-3-sulfonamide] | 96 |
| NC(=O)c1ccc(-c2nc(NCc3ccccc3)c3c(-c4ccccc4)ccn3n2)cn1 [Example 81, 5-(4-(benzylamino)-5-phenylpyrrolo [1,2-f][1,2,4]triazin-2-yl) picolinamide] | 97 |
| O=C(O)c1ccc(-c2nc(NCc3ccccc3)c3c(-c4ccccc4)ccn3n2)cn1 [Example 82, 5-(4-(benzylamino)-5-phenylpyrrolo [1,2-f][1,2,4]triazin-2-yl) picolinic acid] | 17.6 |
| O=C(c1cncc(-c2nc(NCc3ccccc3)c3c(-c4ccccc4)ccn3n2)c1)N1CCOCC1 [Example 84, (5-(4-(benzylamino)-5-phenylpyrrolo [1,2-f][1,2,4]triazin-2-yl)pyridin-3-yl)(morpholino) methanone] | 85.9 |
| COC(=O)c1cccc(-c2nc(NCc3ccccn3)c3c(-c4ccccc4)ccn3n2)c1 [Example 86, methyl 3-(5-phenyl-4-(pyridin-2-ylmethylamino)pyrrolo[1,2-f][1,2,4]triazin-2-yl)benzoate] | 86.3 |
| O=C(O)c1cccc(-c2nc(NCc3ccccn3)c3c(-c4ccccc4)ccn3n2)c1 [Example 87, 3-(5-phenyl-4-(pyridin-2-ylmethylamino)pyrrolo [1,2-f][1,2,4]triazin-2-yl)benzoic acid] | 91 |
| N#Cc1cncc(-c2nc(NC(c3ccccc3)C(F)(F)F)c3c(-c4ccccc4)ccn3n2)c1 (stereo not drawn) [Example 88, 5-(5-phenyl-4-(-2-,2,2-trifluoro-1-phenylethylamino)pyrrolo [1,2-f][1,2,4]triazin-2-yl)nicotinonitrile] | 27.2 |
| CCOC(=O)CCNC(=O)c1cncc(-c2nc(NCc3ccccc3)c3c(-c4ccccc4)ccn3n2)c1 [Example 89, ethyl 3-(5-(4-(benzylamino)-5-phenylpyrrolo [1,2-f][1,2,4]triazin-2-yl)nicotinamido) propanoate] | 97 |
| CC1(C)OCC(CNC(=O)c2cncc(-c3nc(NCc4ccccc4)c4c(-c5ccccc5)ccn4n3)c2)O1 (stereo not drawn) [Example 90, 5-(4-(benzylamino)-5-phenylpyrrolo [1,2-f][1,2,4]triazin-2-yl)-N-((2,2-dimethyl-1,3-dioxolan-4-yl)methyl)nicotinamide] | 96 |
| CC(=O)NS(=O)(=O)c1cncc(-c2nc(NCc3ccccc3)c3c(-c4ccccc4)ccn3n2)c1 [Example 91, N-(5-(4-(benzylamino)-5-phenylpyrrolo [1,2-f][1,2,4]triazin-2-yl)pyridin-3-ylsulfonyl)acetamide] | 61.7 |
| N#Cc1cc(-c2nc(NCc3ccccc3)c3c(-c4ccccc4)ccn3n2)ccn1 [Example 92, 4-(4-(benzylamino)-5-phenylpyrrolo [1,2-f][1,2,4]triazin-2-yl) picolinonitrile] | 88.2 |
| COc1ncc(-c2nc(NCc3ccccc3)c3c(-c4ccccc4)ccn3n2)cc1S(=O)(=O)NC(C)(C)C [Example 93, 5-(4-(benzylamino)-5-phenylpyrrolo [1,2-f][1,2,4]triazin-2-yl)-N-tert-butyl-2-methoxypyridine-3-sulfonamide] | 41 |
| COc1ncc(-c2nc(NCc3ccccc3)c3c(-c4ccccc4)ccn3n2)cc1S(N)(=O)=O [Example 94, 5-(4-(benzylamino)-5-phenylpyrrolo [1,2-f][1,2,4]triazin-2-yl)-2-methoxypyridine-3-sulfonamide] | 95.8 |
| O=C(O)CCNC(=O)c1cncc(-c2nc(NCc3ccccc3)c3c(-c4ccccc4)ccn3n2)c1 [Example 98, 3-(5-(4-(benzylamino)-5-phenylpyrrolo [1,2-f][1,2,4]triazin-2-yl)nicotinamido) propanoic acid] | 55.3 |
| C1=C(c2nc(NCc3ccccc3)c3c(-c4ccccc4)ccn3n2)CCOC1 [Example 100, N-benzyl-2-(3,6-dihydro-2H-pyran-4-yl)-5-phenylpyrrolo [1,2-f][1,2,4] triazin-4-amine] | 96.9 |

Next, values leading:

| inhibition at 0.3 µM [%] | Compound |
| --- | --- |
| 97.8 | N#Cc1ccc(-c2nc(NCc3ccccn3)c3c(-c4ccccc4)ccn3n2)cc1 [Example 67, 4-(5-phenyl-4-(pyridin-2-ylmethylamino)pyrrolo [1,2-f][1,2,4]triazin-2-yl)benzonitrile] |
| 85.4 | COc1ccc(-c2ccn3nc(-c4cncc(N)c4)nc(NCc4ccccn4)c23)cn1 [Example 70, 2-(5-aminopyridin-3-yl)-5-(6-methoxypyridin-3-yl)-N-(pyridin-2-ylmethyl) pyrrolo[1,2-f][1,2,4] triazin-4-amine] |
| 96.7 | CS(=O)(=O)Nc1cncc(-c2nc(NCc3ccccc3)c3c(-c4ccccc4)ccn3n2)c1 [Example 74, N-(5-(4-(benzylamino)-5-phenylpyrrolo [1,2-f][1,2,4]triazin-2-yl)pyridin-3-yl) methanesulfonamide] |
| 90.9 | CS(=O)(=O)Nc1cncc(-c2nc(NCC3CCCCC3)c3c(-c4ccccc4)ccn3n2)c1 [Example 75, N-(5-(4-(cyclohexylmethylamino)-5-phenylpyrrolo[1,2-f] [1,2,4]triazin-2-yl)pyridin-3-yl)methanesulfonamide] |
| 96.9 | N#Cc1ccc(-c2nc(NCc3ccccc3)c3c(-c4ccccc4)ccn3n2)cn1 [Example 80, 5-(4-(-benzylamino)-5-phenylpyrrolo [1,2-f][1,2,4]triazin-2-yl) picolinonitrile] |
| 89.8 | NS(=O)(=O)c1cncc(-c2nc(NC(c3ccccc3)C(F)(F)F)c3c(-c4ccccc4)ccn3n2)c1 (stereo not drawn) [Example 83, 5-(5-phenyl-4-(2,2,2-trifluoro-1-phenylethylamino)pyrrolo [1,2-f][1,2,4]triazin-2-yl)pyridine-3-sulfonamide] |
| 96.3 | COCCNC(=O)c1cncc(-c2nc(NCc3ccccc3)c3c(-c4ccccc4)ccn3n2)c1 [Example 85, 5-(4-(benzylamino)-5-phenylpyrrolo [1,2-f][1,2,4]triazin-2-yl)-N-(2-methoxyethyl) nicotinamide] |
| 95.7 | O=C(NCC(O)CO)c1cncc(-c2nc(NCc3ccccc3)c3c(-c4ccccc4)ccn3n2)c1 (stereo not drawn) [Example 96, 5-(4-(benzylamino)-5-phenylpyrrolo [1,2-f][1,2,4]triazin-2-yl)-N-(2,3-dihydroxypropyl) nicotinamide] |
| 92.2 | O=C(O)/C=C/c1cncc(-c2nc(NCc3ccccc3)c3c(-c4ccccc4)ccn3n2)c1 [Example 99, (E)-3-(5-(4-(benzylamino)-5-phenylpyrrolo [1,2-f][1,2,4]triazin-2-yl)pyridin-3-yl)acrylic acid] |
